{
  "source": "patent US20170065564A1",
  "about": "“BIS-CYCLIC GUANIDINE COMPOUND COMPOSITIONS, METHODS OF USE AND TREATMENT THEREOF” (University of South Florida, priority 2014, published 2017)",
  "type_in_all_cases": "cell-based",
  "key": {"Klebsiella pneumoniae [1]": {"system": "Klebsiella pneumoniae", "assay": "Minimal bactericidal concentration (MBC) assay", "settings": "Klebsiella pneumoniae, purified compound; read-out: MBC90", "procedure": "(§1) Briefly, compound was washed by centrifugation and serial dilution, before plating on Tryptic Soy Agar (TSA). Plates were incubated for 24 hours at 37° C. and cell viability assessed by determining CFU/ml at each concentration, for every compound. Percent recovery was then determined compared to CFU/ml from no drug controls. All concentrations and controls were tested using three biological replicates, alongside two technical replicates for each data point."}, "Staphylococcus aureus": {"system": "Staphylococcus aureus", "assay": "Minimal bactericidal concentration (MBC) assay", "settings": "Staphylococcus aureus, purified compound; read-out: MBC90", "procedure": "as §1"}, "Enterobacter cloacae": {"system": "Enterobacter cloacae", "assay": "Minimal bactericidal concentration (MBC) assay", "settings": "Enterobacter cloacae; purified compound; read-out: MBC90", "procedure": "as §1"}, "Pseudomonas aeruginosa [2]": {"system": "Pseudomonas aeruginosa", "assay": "Minimal bactericidal concentration (MBC) assay", "settings": "Pseudomonas aeruginosa; purified compound; read-out: MBC90", "procedure": "as §1"}, "Enterococcus faecium": {"system": "Enterococcus faecium", "assay": "Minimal bactericidal concentration (MBC) assay", "settings": "Enterococcus faecium, purified compound; read-out: MBC90", "procedure": "as §1"}, "Acinetobacter baumannii [3]": {"system": "Acinetobacter baumannii", "assay": "Minimal bactericidal concentration (MBC) assay", "settings": "Acinetobacter baumannii, purified compound; read-out: MBC90", "procedure": "as §1"}, "[4]": {"system": "Enterobacter cloacae biofilm", "assay": "Minimum biofilm eradication concentration (MBEC) assay", "settings": "24 h biofilm, purified compound", "procedure": "(§2) The minimum biofilm eradication concentration (MBEC) was determined in 96-well microtiter plates as follows. Broth cultures of ESKAPE strains were grown using the conditions described above. Biofilms for each of the ESKAPE pathogens were generated from these as we have previously described for S. aureus, however human serum was not used for non-staphylococcal organisms.^44 46 For all organisms, biofilms were developed by standardizing an overnight culture into fresh media to an OD600 of 0.5 and adding 150 μl into each well of a 96-well microtiter plate. […] These cultures were incubated at 37° C. overnight alongside no drug controls. After 24 hours, the media was removed from wells and the biofilm resuspended in phosphate buffered saline (PBS). Cultures were mixed by vigorous pipetting, before being serially diluted in PBS, and plated in duplicate on relevant agar. Plates were incubated at 37° C. for 24 hours, and CFUs determined by enumeration. Each analysis was performed using three technical replicates, and antibiofilm activity was determined by comparing treated to untreated samples."}, "[5]": {"system": "Enterococcus faecium biofilm", "assay": "Minimum biofilm eradication concentration (MBEC) assay", "settings": "24 h biofilm, purified compound", "procedure": "as §2"}, "[6]": {"system": "Staphylococcus aureus biofilm", "assay": "Minimum biofilm eradication concentration (MBEC) assay", "settings": "24 h biofilm, purified compound", "procedure": "as §2"}, "[7]": {"system": "Pseudomonas aeruginosa biofilm", "assay": "Minimum biofilm eradication concentration (MBEC) assay", "settings": "24 h biofilm, purified compound", "procedure": "as §2"}, "[8]": {"system": "Klebsiella pneumoniae biofilm", "assay": "Minimum biofilm eradication concentration (MBEC) assay", "settings": "24 h biofilm, purified compound", "procedure": "as §2"}, "[9]": {"system": "Acinetobacter baumannii biofilm", "assay": "Minimum biofilm eradication concentration (MBEC) assay", "settings": "24 h biofilm, purified compound", "procedure": "as §2"}, "Acinetobacter baumannii [10]": {"system": "Acinetobacter baumannii", "assay": "MIC micro broth dilution assay", "settings": "for MIC: Acinetobacter baumannii", "procedure,_shortened": "(§3)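 Strains were multidrug-resistant clinical isolates grown in LB (Gram-negative) or TSB (Gram-positive), diluted 1:1,000 before compound addition.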"}, "Pseudomonas aeruginosa [11]": {"system": "Pseudomonas aeruginosa", "assay": "MIC micro broth dilution assay", "settings": "for MIC: Pseudomonas aeruginosa", "procedure": "For this study we used a representative panel of multi-drug resistant clinical ESKAPE pathogen isolates (Supplemental Table S6).^42 43 3a, 44 45 Gram-positive organisms were grown in tryptic soy broth media (TSB), whilst Gram-negative organisms were grown in lysogeny Broth (LB), as described by us previously. ^43 MIC and MBC determination assays.\nBroth cultures of ESKAPE strains were grown overnight before being diluted 1 in 1,000 in fresh media. Sterile 96-well plates were loaded with culture and compounds (in DMF) were added at decreasing concentrations to equal a total volume of 200 μl per well. Care was taken to not add more than 2.0% DMF to any well. Plates were then incubated at 37° C., and MICs determined after 24 hours by visual inspection for a lack of turbidity in wells. All assays were performed in triplicate with identical results obtained. For both the scaffold ranking and positional scanning samples, relative broad-spectrum activity was determined via stacked scores: […]"}, "Klebsiella pneumoniae [12]": {"system": "Klebsiella pneumoniae", "assay": "MIC micro broth dilution assay", "settings": "for MIC: Klebsiella pneumoniae", "procedure,_shortened": "as §3"}},
  "data": [
    {"compound": "CCCCCCCN1C(=N)N(CCCC[C@H]2CNC(=N)N2CCc2cccc(C(F)(F)F)c2)C[C@@H]1CCCC", "note": "[Compound 1]", "values": [
      {"measurement": "MBC", "setting": "Klebsiella pneumoniae [1]", "value": 2.36, "unit": "µM"},
      {"measurement": "MBC", "setting": "Staphylococcus aureus", "value": 3.09, "unit": "µM"},
      {"measurement": "MBC", "setting": "Enterobacter cloacae", "value": 3.14, "unit": "µM"},
      {"measurement": "MBC", "setting": "Pseudomonas aeruginosa [2]", "value": 4.01, "unit": "µM"},
      {"measurement": "MBC", "setting": "Enterococcus faecium", "value": 1.87, "unit": "µM"},
      {"measurement": "MBC", "setting": "Acinetobacter baumannii [3]", "value": 3.05, "unit": "µM"},
      {"measurement": "MBEC50", "setting": "[4]", "value": 13.02, "unit": "µM"},
      {"measurement": "MBEC50", "setting": "[5]", "value": 38.84, "unit": "µM"},
      {"measurement": "MBEC50", "setting": "[6]", "value": 13.87, "unit": "µM"},
      {"measurement": "MBEC50", "setting": "[7]", "value": 19.68, "unit": "µM"},
      {"measurement": "MBEC50", "setting": "[8]", "value": 6.97, "unit": "µM"},
      {"measurement": "MBEC50", "setting": "[9]", "value": 14.82, "unit": "µM"},
      {"measurement": "stacked score activity, 100/MIC, A", "setting": "Acinetobacter baumannii [10]; A. baumannii", "value": 20},
      {"measurement": "MIC", "setting": "Acinetobacter baumannii [10]; A. baumannii isolate 1403", "value": 2, "unit": "µM"},
      {"measurement": "MIC", "setting": "Acinetobacter baumannii [10]; A. baumannii isolate 1643", "value": 2, "unit": "µM"},
      {"measurement": "MIC", "setting": "Acinetobacter baumannii [10]; A. baumannii isolate 1644", "value": 2, "unit": "µM"},
      {"measurement": "MIC", "setting": "Acinetobacter baumannii [10]; A. baumannii isolate 1647", "value": 2, "unit": "µM"},
      {"measurement": "MIC", "setting": "Acinetobacter baumannii [10]; A. baumannii isolate 1648", "value": 2, "unit": "µM"},
      {"measurement": "MIC", "setting": "Acinetobacter baumannii [10]; A. baumannii isolate 1649", "value": 2, "unit": "µM"},
      {"measurement": "MIC", "setting": "Acinetobacter baumannii [10]; A. baumannii isolate 1650", "value": 2, "unit": "µM"},
      {"measurement": "MIC", "setting": "Acinetobacter baumannii [10]; A. baumannii isolate 1651", "value": 2, "unit": "µM"},
      {"measurement": "MIC", "setting": "Acinetobacter baumannii [10]; A. baumannii isolate 1653", "value": 2, "unit": "µM"},
      {"measurement": "MIC", "setting": "Acinetobacter baumannii [10]; A. baumannii isolate 1654", "value": 2, "unit": "µM"},
      {"measurement": "MIC", "setting": "Acinetobacter baumannii [10]; purified compound, Table 1", "value": 1.63, "unit": "µM"},
      {"measurement": "MIC", "setting": "Pseudomonas aeruginosa [11]; P. aeruginosa isolate 1414", "value": 5, "unit": "µM"},
      {"measurement": "MIC", "setting": "Pseudomonas aeruginosa [11]; P. aeruginosa isolate 1415", "value": 5, "unit": "µM"},
      {"measurement": "MIC", "setting": "Pseudomonas aeruginosa [11]; P. aeruginosa isolate 1416", "value": 5, "unit": "µM"},
      {"measurement": "MIC", "setting": "Pseudomonas aeruginosa [11]; P. aeruginosa isolate 1417", "value": 5, "unit": "µM"},
      {"measurement": "MIC", "setting": "Pseudomonas aeruginosa [11]; P. aeruginosa isolate 1418", "value": 7, "unit": "µM"},
      {"measurement": "MIC", "setting": "Pseudomonas aeruginosa [11]; P. aeruginosa isolate 1419", "value": 5, "unit": "µM"},
      {"measurement": "MIC", "setting": "Pseudomonas aeruginosa [11]; P. aeruginosa isolate 1420", "value": 5, "unit": "µM"},
      {"measurement": "MIC", "setting": "Pseudomonas aeruginosa [11]; P. aeruginosa isolate 1421", "value": 5, "unit": "µM"},
      {"measurement": "MIC", "setting": "Pseudomonas aeruginosa [11]; P. aeruginosa isolate 1422", "value": 5, "unit": "µM"},
      {"measurement": "MIC", "setting": "Pseudomonas aeruginosa [11]; P. aeruginosa isolate 1423", "value": 2, "unit": "µM"},
      {"measurement": "MIC", "setting": "Pseudomonas aeruginosa [11]; purified compound, Table 1", "value": 1.63, "unit": "µM"},
      {"measurement": "concentration inhibiting 90% of isolates", "setting": "Pseudomonas aeruginosa [11]; panel of P. aeruginosa clinical isolates", "value": 10, "unit": "µM"},
      {"measurement": "stacked score activity, 100/MIC, K", "setting": "Klebsiella pneumoniae [12]; K. pneumoniae", "value": 33},
      {"measurement": "MIC", "setting": "Klebsiella pneumoniae [12]; K. pneumoniae isolate 1408", "value": 2, "unit": "µM"},
      {"measurement": "MIC", "setting": "Klebsiella pneumoniae [12]; K. pneumoniae isolate 1409", "value": 3, "unit": "µM"},
      {"measurement": "MIC", "setting": "Klebsiella pneumoniae [12]; K. pneumoniae isolate 1410", "value": 3, "unit": "µM"},
      {"measurement": "MIC", "setting": "Klebsiella pneumoniae [12]; K. pneumoniae isolate 1411", "value": 2, "unit": "µM"},
      {"measurement": "MIC", "setting": "Klebsiella pneumoniae [12]; K. pneumoniae isolate 1412", "value": 5, "unit": "µM"},
      {"measurement": "MIC", "setting": "Klebsiella pneumoniae [12]; K. pneumoniae isolate 1413", "value": 3, "unit": "µM"},
      {"measurement": "MIC", "setting": "Klebsiella pneumoniae [12]; K. pneumoniae isolate 1433", "value": 2, "unit": "µM"},
      {"measurement": "MIC", "setting": "Klebsiella pneumoniae [12]; K. pneumoniae isolate 1434", "value": 5, "unit": "µM"},
      {"measurement": "MIC", "setting": "Klebsiella pneumoniae [12]; K. pneumoniae isolate 1440", "value": 2, "unit": "µM"},
      {"measurement": "MIC", "setting": "Klebsiella pneumoniae [12]; K. pneumoniae isolate 1441", "value": 2, "unit": "µM"},
      {"measurement": "MIC", "setting": "Klebsiella pneumoniae [12]; purified compound, Table 1", "value": 1.63, "unit": "µM"},
      {"measurement": "concentration inhibiting 90% of isolates", "setting": "Klebsiella pneumoniae [12]; panel of K. pneumoniae clinical isolates", "value": 10, "unit": "µM"}
    ]}
  ]
}
